“Also recorded” adds a separate entry of the source. Counter-ions that a name gives are not always drawn.
Legend:
[1] = test system: tissue stem cells, transient cells; conditions: cell kinetics type the agent acts on; positive control agents; cited from earlier work
[2] = clinical effects of the known drug; cited from earlier work
[3] = test system: human liver stem cell-enriched cultures; test: Serial culture of human liver stem cell strains with xanthosine (cumulative population doublings); assay type: cell-based; conditions: FIG. 14A
Source text: Using a pre-existing dataset developed with control human mini-tissue cultures and cultures treated with the purine nucleoside xanthosine as the test agent, we have validated the ability to use basic cell culture data, described in the methods herein, to detect effects on liver tissue stem cells. […] We used xanthosine as the agent to expand human liver stem cell strains and to produce human liver mini-tissues. […] Thus, culture systems of cells comprising heterogeneous cell population of stem, transient, and differentiated cells can be used to evaluate the activity of a test agent against tissue stem cells by using the methods described herein.
As an initial test of this ability, we used existing data sets from serial culture of our human liver stem cell strains.^14,15 Because these analyses were not ideally developed for the PSCK computer simulation format, they represented a more challenging validation.
The validation agent used was xanthosine, a purine nucleoside that we have shown independently to induce tissue stem cells to switch from asymmetric self-renewal divisions to symmetric divisions that lead to self-replication.

tissue stem cells = conditions: in vitro; known in the art; cited from earlier work

## O=P1(N(CCCl)CCCl)NCCCO1 (stereo not drawn) [cyclophosphamide]
[1]
  Cell-type Specificity: SC and TC
[2]
  Clinical Effects: Cytoxan ®; extremely myelosuppressive

## CC(=O)[C@]1(O)Cc2c(O)c3c(c(O)c2[C@@H](O[C@H]2C[C@H](N)[C@H](O)[C@H](C)O2)C1)C(=O)c1ccccc1C3=O [idarubicin]
[2]
  Clinical Effects: Targets hematopoietic progenitors

## Cc1ccc(NC(=O)c2ccc(CN3CCN(C)CC3)cc2)cc1Nc1nccc(-c2cccnc2)n1 [imatinib mesylate]
[1]
  Cell-type Specificity: TC^b

## Cc1ccc(C(=O)Nc2ccc(CN3CCN(C)CC3)c(C(F)(F)F)c2)cc1C#Cc1cnc2cccnn12 [ponatinib]
[2]
  Clinical Effects: Inclusig ®; myelosuppressive

## CS(=O)(=O)c1ccc(C2=C(c3ccccc3)C(=O)OC2)cc1 [refecoxib]
[1]
  Cell-type Specificity: SC and TC
[2]
  Clinical Effects: Vioxx ®; idiosyncratic life-threatening toxicity

## Cn1cncc1[C@@](N)(c1ccc(Cl)cc1)c1ccc2c(c1)c(-c1cccc(Cl)c1)cc(=O)n2C [tipifarnib]
[2]
  Clinical Effects: Highly toxic with myelosuppression

## O=c1[nH]c(=O)c2ncn([C@@H]3O[C@H](CO)[C@@H](O)[C@H]3O)c2[nH]1 [xanthosine]
[3]; experimental data
  proliferative rate and extent of human liver stem cell serial cultures: increase the proliferative rate and extent
[3]; xanthosine-supplemented culture, control arrests after less than 30 population doublings
  population doublings reached in serial culture: greater than 80 population doublings
[1]
  Cell-type Specificity: SC^a
Tissue stem cells
  tissue stem cell self-replication: increases self-replication by adult tissue stem cells; also recorded: (In vitro, increases tissue SC self-replication)^1-5
